Where a SMILES comes first, the peptide text is derived from it. Bridges are numbered along the chain shown (N, C = ends). [ ]: non-standard residue; d: D form. The star is where a group is joined. hPhe(3-Cl-4-CF3) = N[C@@H](CCc1ccc(C(F)(F)F)c(Cl)c1)C(=O)O; NPrPhe(4-CF3) = CCCN[C@@H](Cc1ccc(C(F)(F)F)cc1)C(=O)O; NEtPhe(4-Me) = CCN[C@@H](Cc1ccc(C)cc1)C(=O)O; NMeGly(cPent) = CN[C@H](C(=O)O)C1CCCC1; NMeD = CN[C@@H](CC(=O)O)C(=O)O; NMeL = CN[C@@H](CC(C)C)C(=O)O; Morpholide = C1CN(*)CCO1; NMeA = CN[C@@H](C)C(=O)O; NMeAib = CNC(C)(C)C(=O)O; Nle = CCCC[C@H](N)C(=O)O; Piperidide = C1CCN(*)CC1; Ac5c = NC1(C(=O)O)CCCC1; Aze = O=C(O)[C@@H]1CCN1; NEtG = CCNCC(=O)O; Sar = CNCC(=O)O
Legend:
[1] = target: HRAS wild-type protein (Homo sapiens, UniProt P01112); test: Binding to HRAS by surface plasmon resonance (SPR), KD and KD ratio to KRAS
Method in brief: (§1)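 Affinity is measured by surface plasmon resonance at 30°C against captured, GDP-loaded RAS carrying a biotinylated Avi tag. Compounds are titrated by single-cycle kinetics, and KD comes from a 1:1 fit.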

[2] = target: GDP-bound NRAS wild-type protein (Homo sapiens, UniProt P01111); test: Binding to NRAS by surface plasmon resonance (SPR), KD and KD ratio to KRAS
Method in brief: as §1

[3] = tested on: human lung cancer strain NCI-H441; assay type: cell-based
Method in brief: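 Readout: […] after the ATP-based reagent. Compound: serial dilutions in dimethyl sulfoxide.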

[4] = ratio of KD for HRAS wild-type protein to KD for KRAS
[5] = ratio of KD for GDP-bound NRAS wild-type protein to KD for KRAS
[6] = ratio of the KD value with respect to HRAS wild-type protein to the KD value with respect to KRAS
[7] = ratio of the KD value with respect to GDP-bound NRAS wild-type protein to the KD value with respect to KRAS

Chain of GDP-bound NRAS wild-type protein (P01111 whole entry): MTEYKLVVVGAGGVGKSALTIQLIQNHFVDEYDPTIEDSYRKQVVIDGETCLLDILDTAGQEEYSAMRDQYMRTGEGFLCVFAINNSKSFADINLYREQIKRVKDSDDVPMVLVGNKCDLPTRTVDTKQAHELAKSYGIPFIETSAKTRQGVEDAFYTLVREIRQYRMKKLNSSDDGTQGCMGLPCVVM
Chain of HRAS wild-type protein (P01112 whole entry): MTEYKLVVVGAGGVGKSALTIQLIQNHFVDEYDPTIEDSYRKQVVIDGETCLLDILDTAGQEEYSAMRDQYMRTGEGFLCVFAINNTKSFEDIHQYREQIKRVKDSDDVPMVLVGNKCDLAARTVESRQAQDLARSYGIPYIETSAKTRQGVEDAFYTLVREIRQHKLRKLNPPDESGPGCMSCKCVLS

| Structure (SMILES) | HRAS /KRAS [1, 4] | NRAS /KRAS [2, 5] | IC50 [3] | HRAS /KRAS [1, 6] | NRAS /KRAS [2, 7] | HRAS /KRAS ([1]; ratio of KD value for HRAS wild-type protein to KD value for KRAS (SPR)) | NRAS /KRAS ([2]; ratio of KD value for GDP-bound NRAS wild-type protein to KD value for KRAS (SPR)) |
| --- | --- | --- | --- | --- | --- | --- | --- |
| CCO[C@@H]1C[C@H]2C(=O)NC3(CC(C)(C)C3)C(=O)N(C)[C@@H](C3CCCC3)C(=O)N(C)[C@H](C(=O)N3CCCC3)CC(=O)N(C)[C@H]3CCCC/C=C/c4ccc(cc4)C[C@@H](C(=O)N(C)CC(=O)N[C@@H](CCc4ccc(Cl)c(Cl)c4)C(=O)N2C1)N1CC/C=C\C[C@@H](C1=O)N(C)C(=O)CN(C)C(=O)[C@H]([C@@H](C)CC)NC3=O [PP2593] | A (a compound having 10 or more and less than 20 is denoted as A) | A (a compound having 10 or more and less than 20 is denoted as A) | 11.5 nM |  |  |  |  |
| CCO[C@@H]1C[C@H]2C(=O)NC3(CCC3)C(=O)N(C)[C@@H](C3CCCC3)C(=O)N(C)[C@H](C(=O)N(C)C)CC(=O)N(C)C[C@@H](C)C(=O)N[C@@H]([C@@H](C)CC)C(=O)N(C)CC(=O)N(C)[C@H]3CCCCN(C3=O)[C@@H](Cc3ccc(C(F)(F)F)cc3)C(=O)N(C)CC(=O)N[C@@H](CCc3cc(F)c(C(F)(F)F)c(F)c3)C(=O)N2C1 [PP0706] |  |  | 5390 nM | B (a compound having 3 or more and less than 10 is denoted as B) | B (a compound having 3 or more and less than 10 is denoted as B) |  |  |
| CCCN1C(=O)CN(C)C(=O)CN(CC)C(=O)[C@H]([C@@H](C)CC)NC(=O)[C@H](CC(C)C)N(C)C(=O)C[C@@H](C(=O)N2CCOCC2)N(C)C(=O)[C@H](C2CCCC2)N(C)C(=O)C2(CCCC2)NC(=O)[C@@H]2CCN2C(=O)[C@H](CCc2ccc(C(F)(F)F)c(Cl)c2)NC(=O)CN(C)C(=O)[C@@H]1Cc1ccc(C(F)(F)F)cc1 [PP0294] ([NMeL]I[NEtG][Sar][NPrPhe(4-CF3)][Sar][hPhe(3-Cl-4-CF3)][Aze][Ac5c][NMeGly(cPent)][NMeD]-Morpholide; lactam N-11) | C (A compound having a KD ratio of 0.1 or more and less than 3 is denoted as C) | B (a compound having 3 or more and less than 10 is denoted as B) | 55.4 nM |  |  |  |  |
| CC[C@H](C)[C@@H]1NC(=O)[C@H](CC(C)C)N(C)C(=O)C[C@@H](C(=O)N2CCOCC2)N(CC)C(=O)[C@H](C2CCCC2)N(C)C(=O)C2(CCCC2)NC(=O)[C@@H]2CCCN2C(=O)[C@H](CCc2cc(F)c(C(F)(F)F)c(F)c2)NC(=O)CN(C)C(=O)[C@H](Cc2ccc(C(F)(F)F)cc2)N2CCCCC[C@@H](C2=O)N(C)C(=O)CN(C)C1=O [PP0477] |  |  | 139 nM | A (a compound having 10 or more and less than 20 is denoted as A) | A (a compound having 10 or more and less than 20 is denoted as A) |  |  |
| CCCC[C@@H]1NC(=O)[C@H](CCc2ccc(C(F)(F)F)c(Cl)c2)NC(=O)CN(C)C(=O)[C@H](Cc2ccc(C)cc2)N(CC)C(=O)[C@@H]2CCN2C(=O)[C@H](C)N(C)C(=O)[C@H]([C@@H](C)CC)NC(=O)[C@H](CC(C)C)N(C)C(=O)C[C@@H](C(=O)N2CCCCC2)N(C)C(=O)[C@H](CC(C)C)NC(=O)C(C)(C)N(C)C1=O [PP0048] ([NMeL]I[NMeA][Aze][NEtPhe(4-Me)][Sar][hPhe(3-Cl-4-CF3)][Nle][NMeAib]L[NMeD]-Piperidide; lactam N-11) | C (A compound having a KD ratio of 0.1 or more and less than 3 is denoted as C) | C (A compound having a KD ratio of 0.1 or more and less than 3 is denoted as C) | 464 nM |  |  |  |  |
| CCO[C@@H]1C[C@H]2C(=O)N(C)C3(CCC3)C(=O)N(C)[C@@H](C3CCCC3)C(=O)N(C)[C@H](C(=O)N(C)C)CC(=O)N(C)[C@@H](CC)C(=O)N[C@@H]([C@@H](C)CC)C(=O)N(C)CC(=O)N(C)[C@H]3C/C=C\CCN(C3=O)[C@@H](Cc3ccc(C(F)(F)F)cc3)C(=O)N(C)CC(=O)N[C@@H](CCc3cc(F)c(C(F)(F)F)c(F)c3)C(=O)N2C1 [PP1779] |  |  | 5.4 nM |  |  | B (a compound having 3 or more and less than 10 is denoted as B) | A (a compound having 10 or more and less than 20 is denoted as A) |
